From the supplement of paper PMC10307832

How the values were obtained:
Assay in all cases: relative viability (nuclei count vs DMSO), 5 days (fraction); higher = more cells survive
Sulindac = compound: CC1=C(CC(=O)O)c2cc(F)ccc2/C1=C\c1ccc([S+](C)[O-])cc1 [Sulindac]
How it was run: (§1)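 On vehicle-anchored 1536-well plates, lung cancer cell lines held overnight at 37 °C were pinned with five library-drug doses (not always all listed) spaced by √10. With no medium change over 5 days, they were then fixed, permeabilised and Hoechst-stained in one step and imaged at 4×. MetaXpress counted nuclei, and viability is the median across plates of treated-well over vehicle-well nuclei. Acceptance needed control CV below 25% and at least one doubling.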

Staurosporine = compound: CN[C@@H]1C[C@H]2O[C@@](C)([C@@H]1OC)n1c3ccccc3c3c4c(c5c6ccccc6n2c5c31)C(=O)NC4 [Staurosporine]
How it was run: as §1

5-Fluorouracil = compound: O=c1[nH]cc(F)c(=O)[nH]1 [5-Fluorouracil]
How it was run: as §1

[1] = compound: O=c1[nH]cc(F)c(=O)[nH]1 [5-Fluorouracil] + COc1cc2c(Oc3ccc(NC(=O)C4(C(=O)Nc5ccc(F)cc5)CC4)cc3F)ccnc2cc1OCCCN1CCOCC1 [Foretinib] (partner 0.25 µM)
How it was run: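 After 5 days of treatment, lung cancer cells in 1536-well plates were fixed and stained in a single step (final 0.05% Triton X-100, 1% formaldehyde, 1 ug/ml Hoechst) and their nuclei counted on 4× images. Treatment had been applied by pin tool the day after seeding as one drug alone or as a fixed anchor-drug dose with five library-drug doses (not always all listed) in √10 steps. Relative viability is the nuclei count of treated wells divided by that of vehicle wells, and values are medians of duplicate plates.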

| Cell Line | relative viability (Sulindac; 0.08 µM) | relative viability (Sulindac; 0.253 µM) | relative viability (Sulindac; 0.8 µM) | relative viability (Sulindac; 2.53 µM) | relative viability (Sulindac; 8 µM) | relative viability (Staurosporine; 0.005 µM) | relative viability (Staurosporine; 0.01581 µM) | relative viability (Staurosporine; 0.05 µM) | relative viability (Staurosporine; 0.1581 µM) | relative viability (Staurosporine; 0.5 µM) | relative viability (5-Fluorouracil; 0.02 µM) | relative viability (5-Fluorouracil; 0.2 µM) | relative viability (5-Fluorouracil; 0.6325 µM) | relative viability (5-Fluorouracil; 2 µM) | relative viability ([1]; first compound 0.02 µM) | relative viability ([1]; first compound 0.2 µM) | relative viability ([1]; first compound 0.6325 µM) | relative viability ([1]; first compound 2 µM) |
| --- | --- | --- | --- | --- | --- | --- | --- | --- | --- | --- | --- | --- | --- | --- | --- | --- | --- | --- |
| A549 | 1.13 | 1.04 | 0.754 | 1.05 | 1.17 | 0.716 | 0.377 | 0.256 | 0.0723 | 0.0395 | 1.08 | 0.854 | 0.338 | 0.136 | 0.992 | 0.945 | 0.517 | 0.156 |
| LCLC-103H | 1.08 | 1.09 | 0.902 | 0.955 | 1.06 | 0.973 | 0.336 | 0.393 | 0.233 | 0.234 | 1.05 | 0.976 | 0.889 | 0.577 | 0.845 | 0.717 | 0.454 | 0.267 |
| NCI-H596 | 0.975 | 1.03 | 0.846 | 1.02 | 1.04 |  | 0.54 | 0.792 | 0.204 | 0.151 | 1.01 | 0.981 | 0.718 | 0.439 | 0.76 | 0.794 | 0.572 | 0.488 |
| NCI-H358 | 0.918 | 1.01 | 0.74 | 0.999 | 1.16 | 1.03 | 0.326 | 0.203 | 0.117 | 0.104 | 1 | 1.05 | 0.882 | 0.584 | 0.71 | 0.918 | 0.657 | 0.308 |
| NCI-H1755 | 1.1 | 1.09 | 1.01 | 1.08 | 1.06 | 0.829 | 0.47 | 0.319 | 0.191 | 0.213 | 1.02 | 0.994 | 0.356 | 0.304 | 0.909 | 0.854 | 0.365 | 0.319 |
| EPLC-272H | 0.97 | 0.797 | 0.762 | 0.857 | 1.18 | 0.781 | 0.192 | 0.247 | 0.106 | 0.0993 | 0.732 | 0.706 | 0.397 | 0.262 | 0.665 | 0.446 | 0.296 | 0.163 |
| NCI-H2228 | 1.2 | 1.08 | 0.916 | 1.03 | 1.18 | 0.735 | 0.471 | 0.407 | 0.145 | 0.107 | 0.976 | 1.02 | 0.75 | 0.458 | 0.981 | 0.808 | 0.625 | 0.343 |
